{"source": "paper PMC5079767", "about": "(Bioorganic & medicinal chemistry letters, 2016)", "key": {"[1]": {"test_system": "Escherichia coli, Bacillus subtilis, Mycobacterium smegmatis", "details": "cited from earlier work"}, "[2]": {"target": "cysteine adenylation domain of HMWP2 (residues 1–1491) (Yersinia pestis, UniProt A0A2S9PH42)", "sequence (A0A2S9PH42 1-1491 limits assumed)": "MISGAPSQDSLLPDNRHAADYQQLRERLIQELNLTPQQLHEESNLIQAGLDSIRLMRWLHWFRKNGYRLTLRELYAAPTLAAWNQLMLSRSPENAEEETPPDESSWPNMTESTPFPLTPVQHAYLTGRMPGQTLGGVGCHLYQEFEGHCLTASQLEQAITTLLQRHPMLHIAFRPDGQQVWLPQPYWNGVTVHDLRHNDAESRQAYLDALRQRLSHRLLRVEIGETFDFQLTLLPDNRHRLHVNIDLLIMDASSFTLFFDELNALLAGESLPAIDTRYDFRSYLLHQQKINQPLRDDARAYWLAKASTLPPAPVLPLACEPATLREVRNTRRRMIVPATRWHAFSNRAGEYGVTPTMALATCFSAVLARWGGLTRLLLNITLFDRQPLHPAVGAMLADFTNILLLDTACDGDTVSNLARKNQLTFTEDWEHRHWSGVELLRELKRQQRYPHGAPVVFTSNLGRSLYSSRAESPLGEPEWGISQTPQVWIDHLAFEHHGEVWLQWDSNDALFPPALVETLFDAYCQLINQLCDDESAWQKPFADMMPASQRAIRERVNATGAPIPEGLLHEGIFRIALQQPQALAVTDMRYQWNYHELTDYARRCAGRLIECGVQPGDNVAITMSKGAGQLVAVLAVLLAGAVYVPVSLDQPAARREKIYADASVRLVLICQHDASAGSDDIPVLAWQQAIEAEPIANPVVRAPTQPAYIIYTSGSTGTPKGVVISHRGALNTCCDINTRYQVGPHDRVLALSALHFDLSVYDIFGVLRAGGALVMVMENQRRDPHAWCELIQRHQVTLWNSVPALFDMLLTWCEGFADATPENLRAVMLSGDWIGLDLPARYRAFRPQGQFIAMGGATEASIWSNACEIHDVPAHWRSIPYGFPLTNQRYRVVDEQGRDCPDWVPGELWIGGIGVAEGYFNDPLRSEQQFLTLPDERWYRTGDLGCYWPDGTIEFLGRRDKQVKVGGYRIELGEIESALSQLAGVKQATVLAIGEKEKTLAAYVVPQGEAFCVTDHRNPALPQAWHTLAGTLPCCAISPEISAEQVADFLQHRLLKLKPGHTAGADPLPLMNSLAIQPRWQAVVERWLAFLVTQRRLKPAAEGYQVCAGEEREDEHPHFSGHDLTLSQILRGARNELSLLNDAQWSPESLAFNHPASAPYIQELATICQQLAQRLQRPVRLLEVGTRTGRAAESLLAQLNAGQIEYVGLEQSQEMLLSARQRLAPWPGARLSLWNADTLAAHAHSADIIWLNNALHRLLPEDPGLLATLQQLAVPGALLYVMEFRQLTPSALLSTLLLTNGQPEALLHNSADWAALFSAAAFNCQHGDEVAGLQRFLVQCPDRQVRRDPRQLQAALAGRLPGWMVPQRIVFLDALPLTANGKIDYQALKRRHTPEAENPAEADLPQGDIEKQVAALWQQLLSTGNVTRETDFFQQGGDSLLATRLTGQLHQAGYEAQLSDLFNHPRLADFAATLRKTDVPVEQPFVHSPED", "assay_type": "biochemical"}, "[3]": {"test_system": "aminoacyl-tRNA synthetases", "assay_type": "biochemical, rabbit"}, "[4]": {"test_system": "Y. pestis", "assay_type": "cell-based, Yersinia pestis"}, "[5]": {"test_system": "Y. pestis", "details": "cited from earlier work"}}, "note": "Like-named read-outs stand apart in the source and are kept apart here.", "data": [{"compound": "C[C@H](N)C(=O)NS(=O)(=O)OC[C@H]1O[C@@H](n2cnc3c(N)ncnc32)[C@H](O)[C@@H]1O", "note": "[4a, alanyl-AMS]", "values": [{"measurement": "penetration of bacteria above the limits of detection", "setting": "[1]; E. coli, B. subtilis, M. smegmatis", "result": "did not penetrate"}]}, {"compound": "C[C@H](O)C(=O)NS(=O)(=O)OC[C@H]1O[C@@H](n2cnc3c(N)ncnc32)[C@H](O)[C@@H]1O", "note": "[4b, lactyl-AMS]", "values": [{"measurement": "intracellular concentration", "setting": "[1]; all three strains (E. coli, B. subtilis, M. smegmatis), 100 µM extracellular concentration applied", "result": "28 to 53", "unit": "µM"}]}, {"compound": "Nc1ncnc2c1ncn2[C@@H]1O[C@H](COS(=O)(=O)NC(=O)[C@@H](N)CS)[C@@H](O)[C@H]1O", "note": "[4c, cysteyl-AMS]", "values": [{"measurement": "increase in HMWP2 inhibition on inclusion of β-thio group", "setting": "[2]", "result": "≈ 2 orders of magnitude"}, {"measurement": "increase in inhibitory potency by β-thiol side chain", "setting": "[2]", "result": "30–60 fold"}]}, {"compound": "Nc1ncnc2c1ncn2[C@@H]1O[C@H](COS(=O)(=O)NC(=O)[C@@H](O)CS)[C@@H](O)[C@H]1O", "note": "[4d, α-hydroxy-cysteyl-AMS]", "values": [{"measurement": "IC50 relative to alanyl-AMS (4a)", "setting": "[2]", "result": "≤ 15", "unit": "fold"}, {"measurement": "increase in HMWP2 inhibition on inclusion of β-thio group", "setting": "[2]", "result": "≈ 2 orders of magnitude"}, {"measurement": "increase in inhibitory potency by β-thiol side chain", "setting": "[2]", "result": "30–60 fold"}]}, {"compound": "Nc1ncnc2c1nc1n2[C@@H]2O[C@H](COS(=O)(=O)NC(=O)[C@@H](N)CCC1)[C@@H](O)[C@H]2O", "note": "[5a, cyclo-alanyl-AMS]", "values": [{"measurement": "inhibitory activity in in vitro translation assay", "setting": "[3]", "result": "inactive"}, {"measurement": "inhibition of yersiniabactin production", "setting": "[4]", "result": "did not inhibit"}]}, {"compound": "Nc1ncnc2c1nc1n2[C@@H]2O[C@H](COS(=O)(=O)NC(=O)[C@@H](O)CCC1)[C@@H](O)[C@H]2O", "note": "[5b, cyclo-lactyl-AMS]", "values": [{"measurement": "inhibitory activity in in vitro translation assay", "setting": "[3]", "result": "inactive"}]}, {"compound": "salicyl-AMS", "values": [{"measurement": "inhibition of yersiniabactin production", "setting": "[5]", "result": "blocks yersiniabactin production"}]}]}
